# Data published in patent publication US10501482B2, “Compounds for treating spinal muscular atrophy” (Hoffmann-La Roche Inc., priority 2013, dated 2019).
# Counter-ions that a name gives are not always drawn.
# Tests used:
# [1] = test system: full length SMN2 minigene mRNA (FL SMN2mini) in HEK293H cells stably transfected with the SMN2-A minigene construct; assay: SMN2 minigene mRNA splicing RT-qPCR assay in cultured cells; type: cell-based; settings: Homo sapiens, HEK293-H, 24 hours, 7-point concentration curve, concentration giving 1.5-fold FL SMN2mini mRNA vs vehicle, read-out: EC1.5x minigene (EC1.5x concentration for production of full length SMN2 minigene mRNA)
# Procedure, shortened: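 Stably transfected HEK293H cells, 10,000/well in DMEM/10% FBS with hygromycin, attached 6 h, then received compound for 24 h at 37° C in duplicate at 7 concentrations. Multiplex RT-qPCR with GAPDH used primers that detect only the minigene. An efficiency-corrected ΔΔCt, GAPDH- and vehicle-normalized, gave EC1.5x concentrations.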
# SMN protein = SMN protein assay (HTRF) in cultured SMA patient fibroblast cells; type: cell-based; settings: SMA Type 1 human fibroblasts GM03813, 48 hours; for max. fold increase (maximum fold increase of SMN protein): 7-point concentration data, fold vs vehicle control; for EC1.5x SMN protein (EC1.5x concentration for SMN protein expression): 7-point concentration curve, concentration giving 1.5 times SMN protein vs vehicle
# Procedure, shortened: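 SMA patient fibroblasts seeded at 5,000 cells/well, treated 48 h at 37 °C in triplicate per concentration (7-point series). Lysed in RIPA with protease inhibitors; SMN read by HTRF (anti-SMN d2/kryptate, overnight RT), 665/620 nm ratio. ΔF vs blank, expressed as fold over vehicle; EC1.5x and maximum fold increase derived.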
SMILES,EC (1.5-fold) [1] [µM],max. fold increase (maximum fold increase of SMN protein) (SMN protein),EC1.5x SMN protein (EC1.5x concentration for SMN protein expression) (SMN protein) [µM]
"Cc1cn2cc(NC(=O)c3ccc(C4=CCNCC4)cc3F)cc(F)c2n1 [Example 61, 2-fIuoro-N-(8-fluoro-2-methyl-imidazo[1,2-a]-pyridin-6-yl)-4-(1,2,3,6-tetra-hydropyridin-4-yl)benzamide hydrochloride]",0.01,1.7077,–
"Cc1nc2c(F)cc(NC(=O)c3ccc(N4CCNC(C)C4)nc3)cc2o1 (racemic) [Example 27, rac-N-(4-Fluoro-2-methylbenzo-oxazol-6-yl)-6-(3-methylpiperazin-1-yl)nicotinamide]",0.0989,1.6617,0.3964
"Cc1cn2cc(NC(=O)c3ccc(N4CCNC(C)C4)cn3)nc2c(C)n1 (racemic) [Example 10, rac-N-(6,8-dimethyl-imidazo[1,2-a]-pyrazin-2-yl)-5-(3-methyl-piperazin-1-yl)picolinamide]",0.665,1.735,0.329
"Cc1cn2cc(NC(=O)c3ccc(N4CCNC(C)C4)cc3F)cc(Cl)c2n1 (racemic) [Example 54, rac-N-(8-chloro-2-methylimidazo-[1,2-a]pyridin-6-yl)-2-fluoro-4-(3-methylpiperazin-1-yl)benzamide dihydrochloride]",0.0128,1.8217,0.056
"Cc1cn2cc(NC(=O)c3ccc(N4CCNC(C)C4)cn3)cc(F)c2n1 (racemic) [Example 43, rac-N-(8-fluoro-2-methylimidazo[1,2-a]pyridin-6-yl)-5-(3-methylpiperazin-1-yl)picolinamide dihydrochloride]",0.057,1.7873,0.104
"Cc1cn2cc(NC(=O)c3ncc(N4CCNC(C)C4)cc3F)cc(Cl)c2n1 (racemic) [Example 56, rac-N-(8-chloro-2-methylimidazo[1,2-a]pyridin-6-yl)-3-fluoro-5-(3-methyl-piperazin-1-yl)-picolinamide dihydrochloride]",0.017,1.7299,0.07
"Cc1cn2cc(NC(=O)c3ccc(N4CCNCC4)nc3OCC(F)(F)F)cc(F)c2n1 [Example 73, N-(8-fluoro-2-methylimidazo[1,2-a]pyridin-6-yl)-6-(piperazin-1-yl)-2-(2,2,2-trifluoro-ethoxy)nicotinamide]",0.062,1.5775,0.7589
"Cc1cn2cc(NC(=O)c3ccc(C4=CCNCC4)nc3)ccc2n1.Cl [Example 77, N-(2-methylimidazo[1,2-a]pyridin-6-yl)-6-(1,2,3,6-tetrahydropyridin-4-yl)nicotinamide hydrochloride]",0.0641,1.6649,0.2279
"Cc1cn2cc(NC(=O)c3ccc(N4CCN5CCC[C@H]5C4)cc3F)ccc2n1 [Example 31, (S)-2-fluoro-4-(hexahydropyrrolo[1,2-a]pyrazin-2(1H)-yl)-N-(2-methylimidazo[1,2-a]pyridin-6-yl)benzamide]",0.119,1.7849,0.2746
"Cc1cn2cc(NC(=O)c3ccc(N4CCNC(C)C4)nc3)cc(F)c2n1 (racemic) [Example 42, rac-N-(8-fluoro-2-methylimidazo-[1,2-a]pyridin-6-yl)-6-(3-methyl-piperazin-1-yl)-nicotinamide dihydrochloride]",0.0544,1.6988,0.1488
"Cc1cn2cc(NC(=O)c3cnc(N4CCNCC4)cc3F)cc(F)c2n1 [Example 68, 4-fluoro-N-(8-fluoro-2-methylimidazo[1,2-a]pyridin-6-yl)-6-(piperazin-1-yl)nicotinamide]",0.0285,1.6943,0.057
"Cc1cn2cc(NC(=O)c3ccc(C4CCNCC4)cc3F)cc(F)c2n1.Cl [Example 81, 2-fluoro-N-(8-fluoro-2-methylimidazo[1,2-a]pyridin-6-yl)-4-(piperidin-4-yl)benzamide hydrochloride]",0.0374,1.6719,0.2723
"Cc1nc2c(F)cc(NC(=O)c3ccc(N4CCN(C)CC4)nc3)cc2o1 [Example 24, N-(4-fluoro-2-methylbenzo[d]-oxazol-6-yl)-6-(4-methylpiperazin-1-yl)nicotinamide]",0.649,1.756,1.2616
"Cc1nc2c(F)cc(NC(=O)c3ccc(N4CCN5CCC[C@@H]5C4)cc3F)cc2o1 [Example 34, (R)-2-fluoro-N-(4-fluoro-2-methyl-benzo[d]oxazol-6-yl)-4-(hexahydro-pyrrolo[1,2-a]-pyrazin-2(1H)-yl)benzamide]",0.328,1.6527,0.7793
"Cc1cn2cc(NC(=O)c3ccc(N4CCN[C@@H](C)C4)cc3)nc2c(C)n1 [Example 3, N-(6,8-Dimethyl-imidazo[1,2-a]-pyrazin-2-yl)-4-((S)-3-methyl-piperazin-1-yl)-benzamide]",0.552,1.7558,1.47
"Cc1cn2cc(NC(=O)c3ccc(N4CCNC(C)(C)C4)nc3)ccc2n1 [Example 13, 6-(3,3-dimethyl-piperazin-1-yl)-N-(2-methyl-imidazo[1,2-a]-pyridin-6-yl)-nicotinamide]",1.03,1.624,1.7564
"Cc1cn2cc(NC(=O)c3ccc(N4CCNCC4)cc3F)ccc2n1 [Example 44, 2-fluoro-N-(2-methylimidazo[1,2-a]pyridin-6-yl)-4-(piperazin-1-yl)-benzamidehydro-chloride]",0.0648,1.8243,0.13
"Cc1cn2cc(NC(=O)c3ccc(C4=CCNCC4)cn3)ccc2n1 [Example 63, N-(2-methyl-imidazo[1,2-a]-pyridin-6-yl)-5-(1,2,3,6-tetra-hydropyridin-4-yl)picolinamide dihydrochloride]",0.16,1.6807,1.0431
"Cc1cn2cc(NC(=O)c3ccc(N4CCNC(C)C4)cc3F)ccc2n1 (racemic) [Example 18, rac-2-fluoro-N-(2 methylimidazo-[1,2-a]pyridin-6-yl)-4(3-methyl-piperazin-1-yl)-benzamide]",0.0523,1.7677,0.1346
